Measurements published in patent US8039514B2, “Sulfonamide compounds and use thereof” (Asahi Kasei Pharma Corporation, priority 2008, dated 2011).

Target: T1, human calcium-sensing receptor (CaSR) (Homo sapiens, UniProt P41180)
T1 construct: expressed in transfected cells
T1 sequence (P41180 20-1078): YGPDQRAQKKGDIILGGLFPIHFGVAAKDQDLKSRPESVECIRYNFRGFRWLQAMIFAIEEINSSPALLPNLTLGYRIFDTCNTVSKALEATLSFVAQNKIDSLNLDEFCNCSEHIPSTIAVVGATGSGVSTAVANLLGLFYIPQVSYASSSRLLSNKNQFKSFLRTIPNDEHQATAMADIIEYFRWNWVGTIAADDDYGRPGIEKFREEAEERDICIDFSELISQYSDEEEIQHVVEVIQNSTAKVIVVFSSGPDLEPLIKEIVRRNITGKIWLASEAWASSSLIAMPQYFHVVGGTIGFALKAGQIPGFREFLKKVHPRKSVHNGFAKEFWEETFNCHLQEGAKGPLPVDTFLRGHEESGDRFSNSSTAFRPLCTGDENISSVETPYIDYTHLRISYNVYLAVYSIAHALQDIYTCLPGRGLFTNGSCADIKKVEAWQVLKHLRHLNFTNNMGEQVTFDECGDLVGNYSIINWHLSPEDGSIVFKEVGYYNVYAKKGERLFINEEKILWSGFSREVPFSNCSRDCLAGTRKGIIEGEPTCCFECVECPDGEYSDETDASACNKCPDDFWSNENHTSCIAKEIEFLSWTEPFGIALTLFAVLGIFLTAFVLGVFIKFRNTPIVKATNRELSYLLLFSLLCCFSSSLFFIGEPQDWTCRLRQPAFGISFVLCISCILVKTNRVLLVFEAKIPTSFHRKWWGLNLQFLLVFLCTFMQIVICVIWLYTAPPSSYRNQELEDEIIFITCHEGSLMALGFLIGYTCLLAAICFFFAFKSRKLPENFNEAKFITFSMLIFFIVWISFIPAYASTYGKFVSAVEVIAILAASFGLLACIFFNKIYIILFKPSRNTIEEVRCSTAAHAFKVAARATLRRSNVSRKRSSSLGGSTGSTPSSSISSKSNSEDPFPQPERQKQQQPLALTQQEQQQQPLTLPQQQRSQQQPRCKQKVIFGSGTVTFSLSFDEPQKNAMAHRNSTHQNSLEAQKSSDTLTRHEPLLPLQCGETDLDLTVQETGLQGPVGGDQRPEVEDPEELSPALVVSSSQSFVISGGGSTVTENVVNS
Test: intracellular Ca assay, CaSR antagonist activity in HEK293/hCaSR cells
Assay type: cell-based
Settings: Fura2-AM, inhibition of response to calcium chloride ligand solution, read-out: IC50 values according to the intracellular Ca assay (CaSR antagonist activity)
Protocol: HEK293 cells stably expressing human calcium-sensing receptor (CaSR) (termed HEK293/hCaSR cells) were used. HEK293/hCaSR cells were cultured in a culture medium [DMEM medium containing 0.5 mg/mL Geneticin, 50 Unit/mL penicillin, 50 μg/mL streptomycin and 10% fetal bovine serum (FBS), all manufactured by Invitrogen] to semiconfluent in an incubator at 37° C. under 5% carbon dioxide atmosphere.
Cultured cells were washed with phosphate buffered saline (PBS(−), manufactured by Dainippon Sumitomo Pharmaceutical Company) which had been prewarmed to 37° C., added with PBS(−) containing 10 mM ethylenediamine tetraacetic acid (EDTA), and then incubated in an incubator at 37° C. for 10 minutes. After adding the culture medium to separate the cells, cell suspension was transferred to a centrifuge tube. Cells were collected by centrifuge at 1,500 rpm for 3 minutes, and resuspended in Ca assay buffer [20 mM HEPES buffer (pH 7.4), 115 mM sodium chloride, 5.4 mM potassium chloride, 0.8 mM magnesium chloride, 0.8 mM calcium chloride, 13.8 mM D(+)-glucose (all manufactured by Wako Pure Chemicals) and 0.1% bovine serum albumin (manufactured by SIGMA)] containing 0.2% Pluronic F-127 (manufactured by Molecular Probes) and […] Fura2-AM (manufactured by DOJINDO LABORATORIES) to obtain a cell suspension of 5×10^6 cells/mL. After incubating at 37° C. for 30 minutes, the cells were washed twice with the Ca assay buffer and suspended in the same buffer to obtain a cell suspension of 1×10^6 cells/60 μL. 60 μL of the cell suspension was aliquoted to each well of a 96 well UV microplate (manufactured by Corning Co.) to give a cell plate.
The test compound was diluted with the Ca assay buffer to five times the final concentration and then 80 μL of the diluted compound was applied to each well of a 96 well round bottomed microplate (manufactured by Corning Co.) to give a sample plate. 80 μL of the Ca assay buffer containing 7.5 mM calcium chloride (i.e., ligand solution) was applied to each well of a 96 well round bottomed microplate to give a ligand plate. Then, thus prepared sample plate, ligand plate, and the cell plate were placed in Functional Drug Screening System (FDSS) 4000 (manufactured by Hamamatsu Photonics K.K.) which had been preswitched on and prewarmed to 37° C. Measurements were then carried out as follows. After incubating the cell plate for 180 seconds, fluorescence intensity was measured every two seconds (excitation wavelength; 340 nm and 380 nm, measurement wavelength; 500 nm). After the measurement for 40 seconds, 20 μL of the test compound solution from the sample plate was added to the cell plate, followed by continuous measurement for 160 seconds. Then, 20 μL of the ligand solution from the ligand plate was added to the cell plate, followed by continuous measurement for 100 seconds.
Amount of change in intracellular Ca concentration is indicated as a peak height of the ratio of the fluorescence intensity with excitation of 340 nm and 380 nm (i.e., fluorescence intensity with excitation at 340 nm/fluorescence intensity with excitation at 380 nm) that is obtained from the difference between the maximum ratio after adding the ligand solution and the ratio before adding the ligand solution. Further, when the peak height obtained from the Ca assay buffer containing no test compound has inhibition ratio of 0% while the peak height obtained from the Ca assay buffer containing no calcium chloride as a ligand solution has inhibition ratio of 100%, inhibition ratio for each test compound (i.e., CaSR antagonist activity) was calculated.

Row | SMILES | IC50
1 | CN(C[C@H](O)CNC(C)(C)Cc1ccc2ccccc2c1)S(=O)(=O)c1ccc(-c2cc(C(=O)O)cc([N+](=O)[O-])c2)cc1 [Exp. 3-40, (R)-4′-(N-(2-hydroxy-3-(2-methyl-1-(naphthalen-2-yl)propan-2-ylamino)propyl)-N-methylsulfamoyl)-5-nitrobiphenyl-3-carboxylic acid] | 300 to 1000 nM
2 | CN(C[C@H](O)CNC(C)(C)Cc1ccc2ccccc2c1)S(=O)(=O)c1ccc(-c2ccc(NC(=O)CCC(=O)O)cc2)cc1 [Exp. 3-43, (R)-4-(4′-(N-(2-hydroxy-3-(2-methyl-1-(naphthalen-2-yl)propan-2-ylamino)propyl)-N-methylsulfamoyl)biphenyl-4-ylamino)-4-oxobutanoic acid] | 1000 to 3000 nM
3 | CN(C[C@H](O)CNC(C)(C)Cc1ccc2ccccc2c1)S(=O)(=O)c1ccc(-c2ccccc2C=CC(=O)O)cc1 [Exp. 3-44, (R)-3-(4′-(N-(2-hydroxy-3-(2-methyl-1-(naphthalen-2-yl)propan-2-ylamino)propyl)-N-methylsulfamoyl)biphenyl-2-yl)acrylic acid] | 1000 to 3000 nM
4 | CN(C[C@H](O)CNC(C)(C)Cc1ccc2ccccc2c1)S(=O)(=O)c1ccc(-c2ccc(C(=O)O)c(O)c2)cc1 [Exp. 3-46, (R)-3-hydroxy-4′-(N-(2-hydroxy-3-(2-methyl-1-(naphthalen-2-yl)propan-2-ylamino)propyl)-N-methylsulfamoyl)biphenyl-4-carboxylic acid] | 300 to 1000 nM
5 | CN(C[C@H](O)CNC(C)(C)Cc1ccc2ccccc2c1)S(=O)(=O)c1ccc(-c2ccc(SCC(=O)O)cc2)cc1 [Exp. 3-47, (R)-2-(4′-(N-(2-hydroxy-3-(2-methyl-1-(naphthalen-2-yl)propan-2-ylamino)propyl)-N-methylsulfamoyl)biphenyl-4-ylthio)acetic acid] | 300 to 1000 nM
6 | CN(C[C@H](O)CNC(C)(C)Cc1ccc2ccccc2c1)S(=O)(=O)c1ccc(-c2cc(F)c(C(=O)O)c(F)c2)cc1 [Exp. 3-48, (R)-3,5-difluoro-4′-(N-(2-hydroxy-3-(2-methyl-1-(naphthalen-2-yl)propan-2-ylamino)propyl)-N-methylsulfamoyl)biphenyl-4-carboxylic acid] | ≤ 300 nM
7 | CN(C[C@H](O)CNC(C)(C)CC1Cc2ccccc2C1)S(=O)(=O)c1cccc(-c2ccc(C(=O)O)cc2)c1 [Exp. 3-50, (R)-3′-(N-(3-(1-(2,3-dihydro-1H-inden-2-yl)-2-methylpropan-2-ylamino)-2-hydroxypropyl)-N-methylsulfamoyl)biphenyl-4-carboxylic acid] | ≤ 300 nM
8 | Cc1ccc(-c2cccc(S(=O)(=O)N(C)C[C@H](O)CNC(C)(C)CC3Cc4ccccc4C3)c2)cc1C(=O)O [Exp. 3-51, (R)-3′-(N-(3-(1-(2,3-dihydro-1H-inden-2-yl)-2-methylpropan-2-ylamino)-2-hydroxypropyl)-N-methylsulfamoyl)-4-methylbiphenyl-3-carboxylic acid] | 300 to 1000 nM
9 | Cc1cc(-c2cccc(S(=O)(=O)N(C)C[C@H](O)CNC(C)(C)CC3Cc4ccccc4C3)c2)ccc1C(=O)O [Exp. 3-52, (R)-3′-(N-(3-(1-(2,3-dihydro-1H-inden-2-yl)-2-methylpropan-2-ylamino)-2-hydroxypropyl)-N-methylsulfamoyl)-3-methylbiphenyl-4-carboxylic acid] | 300 to 1000 nM
10 | CN(C[C@H](O)CNC(C)(C)CC1Cc2ccccc2C1)S(=O)(=O)c1cccc(-c2ccc(C(=O)O)c(F)c2)c1 [Exp. 3-53, (R)-3′-(N-(3-(1-(2,3-dihydro-1H-inden-2-yl)-2-methylpropan-2-ylamino)-2-hydroxypropyl)-N-methylsulfamoyl)-3-fluorobiphenyl-4-carboxylic acid] | ≤ 300 nM

Second part, the compound after the results:

Row | IC50 | SMILES
11 | ≤ 300 nM | CN(C[C@H](O)CNC(C)(C)CC1Cc2ccccc2C1)S(=O)(=O)c1cccc(-c2ccc(C(=O)O)c(Cl)c2)c1 [Exp. 3-54, (R)-3-chloro-3′-(N-(3-(1-(2,3-dihydro-1H-inden-2-yl)-2-methylpropan-2-ylamino)-2-hydroxypropyl)-N-methylsulfamoyl)biphenyl-4-carboxylic acid]
12 | ≤ 300 nM | CN(C[C@H](O)CNC(C)(C)CC1Cc2ccccc2C1)S(=O)(=O)c1cccc(-c2ccc(C(=O)O)cc2F)c1 [Exp. 3-55, (R)-3′-(N-(3-(1-(2,3-dihydro-1H-inden-2-yl)-2-methylpropan-2-ylamino)-2-hydroxypropyl)-N-methylsulfamoyl)-2-fluorobiphenyl-4-carboxylic acid]
13 | 300 to 1000 nM | CN(C[C@H](O)CNC(C)(C)CC1Cc2ccccc2C1)S(=O)(=O)c1cccc(-c2ccc(C=CC(=O)O)cc2)c1 [Exp. 3-56, (R)-3-(3′-(N-(3-(1-(2,3-dihydro-1H-inden-2-yl)-2-methylpropan-2-ylamino)-2-hydroxypropyl)-N-methylsulfamoyl)biphenyl-4-yl)acrylic acid]
14 | ≤ 300 nM | CN(C[C@H](O)CNC(C)(C)CC1Cc2ccccc2C1)S(=O)(=O)c1cccc(-c2cccc(C=CC(=O)O)c2)c1 [Exp. 3-58, (R)-3-(3′-(N-(3-(1-(2,3-dihydro-1H-inden-2-yl)-2-methylpropan-2-ylamino)-2-hydroxypropyl)-N-methylsulfamoyl)biphenyl-3-yl)acrylic acid]
15 | ≤ 300 nM | CN(C[C@H](O)CNC(C)(C)CC1Cc2ccccc2C1)S(=O)(=O)c1cccc(-c2ccc(NC(=O)CCC(=O)O)cc2)c1 [Exp. 3-59, (R)-4-(3′-(N-(3-(1-(2,3-dihydro-1H-inden-2-yl)-2-methylpropan-2-ylamino)-2-hydroxypropyl)-N-methylsulfamoyl)biphenyl-4-ylamino)-4-oxobutanoic acid]
16 | ≤ 300 nM | CN(C[C@H](O)CNC(C)(C)CC1Cc2ccccc2C1)S(=O)(=O)c1cccc(-c2cc(F)cc(C(=O)O)c2)c1 [Exp. 3-60, (R)-3′-(N-(3-(1-(2,3-dihydro-1H-inden-2-yl)-2-methylpropan-2-ylamino)-2-hydroxypropyl)-N-methylsulfamoyl)-5-fluorobiphenyl-3-carboxylic acid]
17 | 1000 to 3000 nM | Cc1ccc(CC(C)(C)NC[C@@H](O)CN(C)S(=O)(=O)c2cccc(-c3cccc(C(=O)O)c3)c2)cc1F [Exp. 3-63, (R)-3′-(N-(3-(1-(3-fluoro-4-methylphenyl)-2-methylpropan-2-ylamino)-2-hydroxypropyl)-N-methylsulfamoyl)biphenyl-3-carboxylic acid]
